The numbers were not newly measured in patent publication US20100080846A1, “DIPYRIDAMOLE AND […] ACID FORMULATIONS AND PROCESS FOR PREPARING SAME” (priority 2008, published 2010), which cites them from elsewhere.

The conditions of this data set: above a pH of 4.

In the case of `OCCN(CCO)c1nc(N2CCCCC2)c2nc(N(CCO)CCO)nc(N3CCCCC3)c2n1` [Dipyridamole, 2,6-bis-(diethanolamino)-4,8-dipiperidino-(5,4-d)-pyrimidine], the solubility in water entry is given as “practically insoluble”.
